Here are results for 16 compounds from ChEMBL document CHEMBL3779857, “Aspidofractinine and Eburnane Alkaloids from a North Borneo Kopsia. Ring-Contracted, Additional Ring-Fused, and Paucidactine-Type Aspidofractinine Alkaloids from K. pauciflora” (J Nat Prod, 2016).

Structures are written as SMILES.

For orientation: IC50 means the midpoint of a concentration-inhibition curve.

Holding throughout (format): functional, cell-based
One assay deals with KB. Put plainly: Cytotoxicity against human vincristine-sensitive KB cells assessed as cell viability after 72 hrs by MTT assay. On the technique in general: Formazan colour is commonly taken as a measure of viable cells.
A short description of assay [1]: Cytotoxicity against human KB/VJ300 cells assessed as cell viability after 72 hrs by MTT assay. To be noted: KB/VJ300, 72 h.
A further assay concerns A549. The experiment in a line: Cytotoxicity against human A549 cells assessed as cell viability after 72 hrs by MTT assay. To be noted: A549, 72 h.
The nature of assay [2]: Cytotoxicity against human KB/VJ300 cells assessed as cell viability after 72 hrs by MTT assay in presence of 0.121 uM vincristine. To be noted: KB/VJ300, 72 h.
The nature of assay [3]: Cytotoxicity against human PC3 cells assessed as cell viability after 72 hrs by MTT assay. To be noted: PC-3, 72 h.
Assay [4] can be described thus: Cytotoxicity against human HCT116 cells assessed as cell viability after 72 hrs by MTT assay. To be noted: HCT-116, 72 h.
Another assay concerns MCF7. Put plainly: Cytotoxicity against human MCF7 cells assessed as cell viability after 72 hrs by MTT assay. The following applies: MCF7, 72 h.

As for `C[C@H]1O[C@@H]2C[C@]13CCCN1CC[C@]4(C(=O)c5ccccc5N24)[C@H]13`, the IC50 (with KB; in assay [1]) was greater than 25 mg/L in each case.
Regarding `CC[C@@]12CCCN3CCc4c(n(c5ccccc45)[C@H](c4ccc5c(c4)N[C@@]46CC[C@]7(CCCN8CC[C@]54[C@@H]87)C[C@H]6C(=O)OC)C1)[C@H]32`, the IC50 in the assay on A549 was 33.1 µM; in the assay with KB, 24.2 µM; in assay [1] it was 37.3 µM; in assay [2], 7.8 µM; in assay [3], 11.5 µM; in assay [4] it was 12.3 µM. The IC50 in the assay on MCF7 was found to be 15.7 µM.
For `COC(=O)[C@@H]1C[C@]23CC[C@@]14Nc1ccccc1[C@@]41CCN(C4=CC(=O)C[C@H]4C2)[C@@H]31`, the IC50 (in the assay on KB; in assay [1]) was greater than 25 mg/L in each case.
`C[C@@H](O)[C@]12C=Cn3c4c(c5ccccc53)CCN(CCC1)[C@@H]42`: the IC50 (in the assay with KB; in assay [1]) was greater than 25 mg/L throughout.
As for `COC(=O)[C@@H]1C[C@@]23CCCN4CC[C@@]5(c6ccc([C@@H]7C[C@@]8([C@@H](C)O)CCCN9CCc%10c(n7c7ccccc%107)[C@H]98)cc6N[C@]15CC2)[C@@H]43`, the IC50 was greater than 25 mg/L in the assay on A549; 28.8 µM in the assay with KB; greater than 25 mg/L in assay [1]; 13.6 µM in assay [2]; 15.3 µM in assay [3]; 25.1 µM in assay [4]. Further, the half-inhibitory concentration (IC50) with MCF7 turned out to be 22.3 µM.
With `CC(=O)[C@@]12CCCN3CCc4c(n(c5ccccc45)[C@@H](O)C1)[C@H]32`, the IC50 (in the assay on KB; in assay [1]) was greater than 25 mg/L throughout.
Take `CC[C@@]12CCCN3CCc4c(n(c5ccccc45)[C@H](c4ccc5c(c4)N[C@@]46CC[C@]7(CCCN8CC[C@]54[C@@H]87)C[C@H]6C(=O)O)C1)[C@H]32`: the IC50 (with A549; in the assay on KB; in assay [1]; in assay [2]; in assay [3]; in assay [4]) was greater than 25 mg/L in each case. In the assay on MCF7, the IC50 was greater than 25 mg/L.
Turning to `COC(=O)[C@@H]1C[C@]23CC[C@@]14Nc1ccccc1[C@@]41CCN(C=C(C=O)C2)[C@@H]31`, the IC50 (in the assay with KB; in assay [1]) was greater than 25 mg/L each time.
Consider `COC(=O)N1c2c(OC)cccc2[C@]23C4C(=O)[C@H]5C[C@@]6(CCCN(C4=O)[C@@H]62)CC[C@]513` (stereo partly specified), for which the concentration for half-maximal inhibition (IC50) (with KB; in assay [1]) was greater than 25 mg/L throughout.
In the case of `COC(=O)[C@@H]1C[C@]23CC[C@@]14Nc1ccccc1[C@@]41CCN(C(=O)C2)[C@@H]31`, the IC50 (with KB; in assay [1]) was greater than 25 mg/L throughout.
For `O=C1OC2C(=O)N3CCC[C@]45CC[C@@]6(Nc7ccccc7[C@@]26[C@@H]34)[C@@H]1C5` (stereo partly specified), the IC50 (in the assay with KB; in assay [1]) was greater than 25 mg/L in each case.
For the compound `COC(=O)N1c2c(ccc3c2OCO3)[C@@]23C4CN5CCC[C@]6(CC[C@]12[C@](O)(C6)OC4=O)[C@H]53` (stereo partly specified), the IC50 (with KB; in assay [1]) was greater than 25 mg/L in each case.
With `O=C1OC2CN3CCC[C@]45CC[C@@]6(Nc7ccccc7[C@@]26[C@@H]34)[C@@H]1C5` (stereo partly specified), the IC50 (in the assay with KB; in assay [1]) was greater than 25 mg/L throughout.
As for `CCO[C@H]1C[C@@]2([C@@H](C)O)CCCN3CCc4c(n1c1ccccc41)[C@H]32`, the IC50 (with KB; in assay [1]) was greater than 25 mg/L each time.
For the compound `COc1ccc(CCN(C)CCCC(C#N)(c2ccc(OC)c(OC)c2)C(C)C)cc1OC` (stereo unspecified), in the assay with KB, the IC50 is greater than 25 mg/L.
Consider `CC[C@]1(O)C[C@H]2CN(CCc3c([nH]c4ccccc34)[C@@](C(=O)OC)(c3cc4c(cc3OC)N(C=O)[C@H]3[C@@](O)(C(=O)OC)[C@H](OC(C)=O)[C@]5(CC)C=CCN6CC[C@]43[C@@H]65)C2)C1` [VINCRISTINE], for which the IC50 is 0.0033 µM in the assay on KB and 7.5 µM in assay [1].
